Laboratory results as given in patent US9254288B2, “Susceptibility of tumors to tyrosine kinase inhibitors and treatment thereof” (THE TRANSLATIONAL GENOMICS RESEARCH INSTITUTE, priority 2012, dated 2016).

Legend:
[1] = test system: BaF3 FGFR2 K660E; assay: BaF3 cell viability, FGFR2 K660E
Method: (§1) pEF1a.FGFR2b.IRES.neo or the various FGFR2b mutant plasmids were introduced into BaF3 cells using the Amaxa nucleofector kit V, according to the manufacturer's instructions (Amaxa, Walkersville, Md.). Cells were selected in growth media containing 1200 μg/ml G418 and 5 ng/ml IL3 for 14 days and frozen down.
(§2) After 72 hours, cell viability was measured using the ViaLight kit (Lonza, Walkersville, Md.). Values were normalized to DMSO vehicle control wells and IC50 values generated by nonlinear regression analysis with variable slope using Prism software version 4.0c (GraphPad Software, San Diego, Calif.). […] Following 72 hours of drug treatment, cell viability was assessed using the CyQUANT Cell Proliferation Assay Kit (Life Technologies, Carlsbad, Calif.). Values were normalized to DMSO vehicle control wells and IC50 values calculated as described above. Proliferation assays were performed in triplicate on two independent days and the results averaged.

[2] = test system: stable BaF3-FGFR2 cells, dovitinib-resistant FGFR2 mutants; assay: BaF3 cell viability, panel of dovitinib-resistant FGFR2 mutations; settings: FGF10-induced proliferation
Method: as §1, §2

[3] = test system: BaF3/FGFR2b N550K; assay: BaF3 cell viability (ViaLight), FGFR2b N550K; assay type: cell-based, murine; settings: for activity against or resistance of N550K, cell viability: BaF3 N550K
[4] = test system: endometrial cancer cell lines; assay: Endometrial cancer cell line panel viability (CyQUANT); settings: FGFR2 mutant and wild-type endometrial cancer lines, 72 hours
Method: as §2

[5] = test system: BaF3/FGFR2b wildtype; assay: BaF3 cell viability (ViaLight), wild-type FGFR2b; assay type: cell-based, murine; settings: Mus musculus, BaF3, 72 h, read-out: IC50 value in BaF3/FGFR2b wildtype
[6] = test system: BaF3 cells expressing the E719G mutant FGFR2; assay: BaF3 cell viability, FGFR2b E719G; assay type: cell-based, murine; settings: E719G alone vs wild-type FGFR2
[7] = test system: JHUEM-2 cells expressing FGFR2N550K; assay: JHUEM-2 cells stably expressing FGFR2N550K, cell viability; assay type: cell-based; settings: JHUEM-2 FGFR2N550K vs control lines (FIG. 8A)
[8] = test system: BaF3 FGFR2 V565I; assay: BaF3 cell viability, FGFR2b V565I gatekeeper mutant; assay type: cell-based, murine
[9] = test system: EJ; assay: Endometrial cancer cell viability, EJ; assay type: cell-based; settings: Homo sapiens, 72 h
[10] = test system: AN3CA; settings: cited from earlier work
[11] = test system: EI; assay: Endometrial cancer cell viability, EI; assay type: cell-based; settings: 72 h
[12] = test system: MFE280; settings: MFE280, FGFR-mutant EC line; cited from earlier work
[13] = test system: EN1078D; assay: Endometrial cancer cell viability, EN1078D; assay type: cell-based; settings: 72 h
[14] = test system: MFE296; settings: MFE296, carries N550K FGFR2 mutation; cited from earlier work

SMILES | activity against K660E activating mutation, cell viability [1] | sensitivity or resistance of the FGFR2 mutation panel, cell viability [2] | activity against or resistance of N550K, cell viability [3] | order of sensitivity across the cell line panel [4] | IC50 [5] [nM] | resistance conferred by E719G mutation [6] | fold increase in the IC50 [7] [fold] | activity against or resistance of V565I gatekeeper mutation, cell viability [8] | IC50 [9] [µM] | growth arrest and cell death ([10]; FGFR-mutant EC line) | sensitivity to FGFR inhibition ([10]; carries N550K FGFR2 mutation) | fold difference in IC50, N550K versus wildtype ([3]; BaF3/FGFR2b N550K vs wildtype) | IC50 ([3]; Mus musculus, BaF3, 72 h, read-out: IC50 value in N550K resistance cells) [nM] | IC50 [11] [µM] | growth arrest and cell death [12] | IC50 [13] [µM] | sensitivity to FGFR inhibition [14]
CCN1CCN(c2ccc(Nc3cc(N(C)C(=O)Nc4c(Cl)c(OC)cc(OC)c4Cl)ncn3)cc2)CC1 [BGJ398] | good activity | all FGFR2 kinase mutations except the V565I from the mutation panel are sensitive | good activity |  |  |  |  |  |  |  |  |  |  |  |  |  | 
CNC(=O)c1cc(Oc2ccc(NC(=O)Nc3cc(C(C)(C)C)nn3-c3ccc4ncccc4c3)c(F)c2)ccn1 [DCC2036] |  | most FGFR2 kinase mutations except N550K from this BaF3 resistance screen are sensitive |  |  |  |  |  |  |  |  |  |  |  |  |  |  | 
CCN(CC)CCCCNc1ncc2cc(-c3cc(OC)cc(OC)c3)c(NC(=O)NC(C)(C)C)nc2n1 [PD173074] |  | imparted resistance | greatest resistance | least sensitive | 4.5 | did not induce resistance | ~5 | greatest resistance | > 4 | induced G1 growth arrest and cell death | sensitive | over 170 fold | 776 | > 4 | induced G1 growth arrest and cell death | > 4 | sensitive
